# No end group written: not given here. *: point of attachment. For = O=C*
# Tests used:
# [1] = biological target: T1, bovine TPCK-treated trypsin (Bos taurus, UniProt P00760); experiment: Susceptibility to proteolysis, residual bactericidal activity; assay type: in vitro ADME; conditions: 30 μM peptide, 100 mM Tris-HCl pH 8.0 with 5 mM CaCl2, enzyme:peptide 1:50 or 1:10 (w/w), 3 hours, 37 °C; residual activity by radial diffusion assay on B. subtilis; triplicate
# T1 construct: purchased Sigma
# Method: (§1) The bactericidal activity of BacSp222 was also determined using the radial diffusion assay. In TSB agar (1%, w/v) containing a 200× diluted overnight culture of Bacillus subtilis ATCC 6633, wells of 2.4-mm diameter were created by drilling out the agar and filling the hole with 10 μl of the BacSp222 preparation for testing. Following overnight incubation at 37 °C, the bactericidal activity was measured as the area of the inhibition zones.
# (§2) The temperature stability of BacSp222 (30 μM final concentration) was determined in PBS. The solution was incubated for 1 or 3 h at 72 °C (typical temperature of pasteurization) or at 100 °C. Independently, a solution of bacteriocin was also subjected to a full cycle of autoclaving (20 min at 121 °C). The susceptibility of BacSp222 to proteolysis was verified using S. aureus staphopain C and V8 peptidase, human neutrophil elastase, human cathepsin G (Biocentrum), bovine TPCK-treated trypsin, pepsin from porcine gastric mucosa (Sigma), and proteinase K (A&A Biotechnology). The dried samples of BacSp222 were dissolved to a final concentration of 30 μM in the following buffers: 100 mM Tris-HCl pH 8.0 containing 5 mM CaCl2 (for trypsin and proteinase K), 100 mM Tris-HCl pH 7.5 containing 5 mM cysteine hydrochloride and 5 mM EDTA (for staphopain C), 100 mM Tris-HCl pH 8.0 (for elastase), 100 mM Tris-HCl pH 7.5 containing 500 mM NaCl (for cathepsin G), 100 mM sodium phosphate pH 7.8 (for V8 peptidase), and 100 mM ammonium acetate pH 4.0 (for pepsin). The peptidases were added at 1:50 or 1:10 (enzyme:BacSp222) ratios by weight, and the mixtures were incubated for 1 or 3 h at 37 °C. The residual activity was determined with the radial diffusion assay using Bacillus subtilis as an indicator strain. All of the above experiments were performed in triplicate.
# [2] = biological target: T2, pepsin from porcine gastric mucosa (Sus scrofa, UniProt P00791); experiment: as above; assay type: in vitro ADME; conditions: 30 μM peptide, 100 mM ammonium acetate pH 4.0, enzyme:peptide 1:50 or 1:10 (w/w), 3 hours, 37 °C; residual activity by radial diffusion assay on B. subtilis; triplicate
# T2 construct: purchased Sigma; host or cells: porcine gastric mucosa
# Method: as §1, §2
# proteinase K = biological target: T3, proteinase K (Parengyodontium album, UniProt P06873); experiment: as above; assay type: in vitro ADME; conditions: 30 μM peptide, 100 mM Tris-HCl pH 8.0 with 5 mM CaCl2, enzyme:peptide 1:50 or 1:10 (w/w), 3 hours, 37 °C; residual activity by radial diffusion assay on B. subtilis; triplicate
# T3 construct: purchased A&A Biotechnology
# Method: as §1, §2
# [3] = biological target: T4, human neutrophil elastase (Homo sapiens, UniProt P08246); experiment: as above; assay type: in vitro ADME; conditions: 30 μM peptide, 100 mM Tris-HCl pH 8.0, enzyme:peptide 1:50 or 1:10 (w/w), 3 hours, 37 °C; residual activity by radial diffusion assay on B. subtilis; triplicate
# T4 construct: purchased Biocentrum
# Method: as §1, §2
# P388D1 cells = experiment: NO synthesis (nitrite, Griess reagent); assay type: cell-based, murine; conditions: 24 h
# Method: (§3) The murine monocyte/macrophage cell line P388/D1 and murine macrophage-like cell line RAW264.7 were grown in a 96-well plate in DMEM supplemented with 5% (v/v) FBS. Prior to the experiment, the medium was replaced with fresh DMEM enriched with 2% (v/v) of FBS (negative control) or supplemented with 1) 100 ng/ml lipopolysaccharide (LPS, Sigma), 2) 10 ng/ml IFN [drawing 9] (R&D Systems), 3) 0.01–1000 nM BacSp222, or 4) BacSp222 combined with LPS or IFN [drawing 10] . The cells were then cultured for another 24 h to induce iNOS expression and nitric oxide synthesis. The nitrite levels were measured in culture medium by a nitrate assay performed on a microplate. One hundred microliters of cultured media was incubated with 100 μl of Griess reagent (1% (w/v) sulphanilic acid/0.1% (w/v) N-(1-naphtyl) ethylenediaminedihydrochloride (Sigma) in 2.5% (v/v) H3PO4) at room temperature for 10 min. Then, the absorbance was measured at 545 nm using a microplate reader (PowerWave X, BioTek Instruments). Before use, the solution of BacSp222 was tested for LPS contamination using an E-TOXATE assay kit (Sigma). The measurements ascertained that the level of LPS in 1 μM bacteriocin solution was equal to or less than 3 pg/ml.
# RAW264.7 cells = experiment: NO synthesis (nitrite, Griess reagent); assay type: cell-based, murine; conditions: 24 h
# Method: as §3
# [4] = Hydrodynamic diameter by dynamic light scattering; assay type: physicochemical; conditions: 0.2 mg/ml in PBS, room temperature, filtered 0.2 μm, average of three independent measurements; suggests elongated shape or dimers
# Method: The hydrodynamic diameter of the BacSp222 molecule was determined at room temperature by the dynamic light scattering (DLS) technique using a Zetasizer Nano ZS apparatus (Malvern Instruments); a 0.2 mg/ml solution of the peptide in phosphate buffered saline (PBS) was used for analysis. Prior to measurements, the solution was filtered through a 0.2 μm bioinert membrane (Sigma). The obtained spectra were averaged over three independent measurements. The size of BacSp222 was also evaluated by gel filtration chromatography using a Superdex Peptide 10/300 GL column (GH Healthcare) operated in PBS with a 0.3 ml/min flow rate.
# S. aureus RN4220 (pCN68) = experiment: GFP release assay; assay type: cell-based, Staphylococcus aureus; conditions: 2 × 10^6 CFU in PBS, 1 h 37 °C, 0.23 to 15 μM BacSp222, fluorescence of supernatant 480/510 nm
# Method: The bacteria transformed with GFP-encoding plasmids (pCN68[59] for S. aureus RN4220; pALCP2G[60] for B. subtilis 1A751[61] and E. coli DH5α) were grown overnight in TSB supplemented with appropriate antibiotics, washed twice and finally suspended in PBS. Fifty microliters of the suspensions containing 2 × 10^6 CFU of bacteria were then incubated for 1 h at 37 °C with serial dilutions of BacSp222 at concentrations ranging from 0.23 to 15 μM. Then, the bacteria were spun down, and the fluorescence in the supernatant was determined (Synergy H1 microplate reader, BioTek, 480/510 nm excitation/emission wavelengths). As the controls for 100% GFP release, S. aureus and B. subtilis were lysed using lysostaphin and chicken egg white lysozyme (Sigma), respectively, whereas the E. coli cells were disrupted by ultrasonication.
# [5] = 0.01–1000 nM BacSp222 with LPS 100 ng/ml
# [6] = nanomolar concentrations of BacSp222 with IFNγ 10 ng/ml
# T1 sequence (P00760 24-246): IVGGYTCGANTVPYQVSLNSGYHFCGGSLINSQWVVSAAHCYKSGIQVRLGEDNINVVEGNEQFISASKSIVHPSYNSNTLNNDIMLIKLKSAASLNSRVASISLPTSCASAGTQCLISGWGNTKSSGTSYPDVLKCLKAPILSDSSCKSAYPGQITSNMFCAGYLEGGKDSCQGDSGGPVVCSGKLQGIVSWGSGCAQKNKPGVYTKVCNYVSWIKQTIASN
# T2 sequence (P00791 60-385): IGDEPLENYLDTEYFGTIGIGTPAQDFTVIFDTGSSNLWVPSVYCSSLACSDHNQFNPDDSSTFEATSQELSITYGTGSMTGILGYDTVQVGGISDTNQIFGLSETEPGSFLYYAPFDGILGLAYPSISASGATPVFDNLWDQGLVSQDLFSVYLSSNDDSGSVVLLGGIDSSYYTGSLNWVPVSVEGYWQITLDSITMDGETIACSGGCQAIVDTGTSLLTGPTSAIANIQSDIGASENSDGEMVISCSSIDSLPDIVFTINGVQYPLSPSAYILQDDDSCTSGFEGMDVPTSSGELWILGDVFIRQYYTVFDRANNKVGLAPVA
# T4 sequence (P08246 30-267): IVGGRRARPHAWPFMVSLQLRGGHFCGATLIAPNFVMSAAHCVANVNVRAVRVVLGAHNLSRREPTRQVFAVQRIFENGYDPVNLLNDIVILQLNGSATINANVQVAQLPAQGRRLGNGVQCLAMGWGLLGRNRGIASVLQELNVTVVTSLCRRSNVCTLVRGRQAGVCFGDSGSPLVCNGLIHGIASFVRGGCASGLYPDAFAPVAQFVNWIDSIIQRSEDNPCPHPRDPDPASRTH
# T3 sequence (P06873 106-384): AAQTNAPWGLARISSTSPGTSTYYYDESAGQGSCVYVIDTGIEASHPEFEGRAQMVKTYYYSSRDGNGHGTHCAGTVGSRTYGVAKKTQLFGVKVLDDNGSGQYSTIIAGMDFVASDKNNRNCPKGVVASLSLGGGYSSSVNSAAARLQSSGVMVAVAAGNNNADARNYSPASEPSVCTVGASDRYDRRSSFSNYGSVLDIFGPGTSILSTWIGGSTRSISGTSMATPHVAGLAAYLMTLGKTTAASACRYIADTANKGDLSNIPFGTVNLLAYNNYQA
substance,measurement,setting,value
For-MAGLLRFLLSKGRALYNWAKSHVGKVWEWLKSGATYEQIKEWIENALGWR [BacSp222],activity of BacSp222 after incubation with the enzyme,[1],not significantly reduced
same,activity of BacSp222 after incubation with the enzyme,[2],not significantly reduced
same,activity of BacSp222 after incubation with the enzyme,proteinase K,not significantly reduced
same,activity of BacSp222 after incubation with the enzyme,[3],not significantly reduced
same,effect on LPS-induced NO production,P388D1 cells; [5],did not affect
same,NO production after exposure to BacSp222 alone,"P388D1 cells; at 100 and 1000 nM, DMEM 2% FBS, nitrite at 545 nm",able to produce NO
same,NO release with BacSp222 together with IFNγ,P388D1 cells; [6],released NO in a dose-dependent manner
same,effect on LPS-induced NO production,RAW264.7 cells; [5],did not affect
same,NO production after exposure to BacSp222 alone,"RAW264.7 cells; 0.01–1000 nM, DMEM 2% FBS, nitrite at 545 nm",Only P388D1 cells were able to produce NO
same,NO release with BacSp222 together with IFNγ,RAW264.7 cells; [6],released NO in a dose-dependent manner
same,hydrodynamic diameter estimated by DLS,[4],3.68 nm
same,leakage of GFP from recombinant cells,S. aureus RN4220 (pCN68),dose-dependent leakage of GFP was observed

# Reference: paper PMC4585962, “A peptide factor secreted by Staphylococcus pseudintermedius exhibits properties of both bacteriocins and virulence factors” (Scientific Reports, 2015)
